Measured values: article PMC12217469 (Nature Communications, 2025)
Residues, ends and D or L forms follow the SMILES beside them. *: point of attachment. Cbz = O=C(OCc1ccccc1)*

Test system: H2B
Assay: Western blotting of H2B degradation, HeLa cells
Format: cell-based

Compound | effect on H2B degradation by Tz-MitoFlag (100 μM, 24 h) and TP2T (10 nM, 24 h) (coincubated or pretreated with Thalidomide 10 μM) | effect on H2B degradation by Tz-MitoFlag (100 μM, 24 h) and TP2T (10 nM, 24 h) (coincubated or pretreated with MG132 10 μM)
O=C1CCC(N2C(=O)c3ccccc3C2=O)C(=O)N1 (centres unmarked) [Thalidomide, thalidomide] | inhibited | –
CC(C)C[C@@H](C=O)NC(=O)[C@H](CC(C)C)NC(=O)[C@H](CC(C)C)NC(=O)OCc1ccccc1 [MG132] (Cbz-Leu-Leu-Leu-aldehyde) | – | no degradation of H2B
